In patent publication US8530235B2, “Medium that supports culture of an oocyte and modulation of granulosa cell apoptosis” (Adelaide Research & Innovation Pty Ltd., priority 2005, dated 2013):

Tests used:
[1] = system: activin receptor-like kinases (ALKs) 4, 5 and 7; conditions: competitive ATP binding site kinase inhibitor; without effecting ALKs 1, 2, 3 or 6 or other cellular kinases; cited from earlier work
[2] = system: mural granulosa cells; assay: Mural granulosa cell DNA synthesis, 3H-thymidine incorporation; assay type: cell-based, marmoset monkey, Callithrix jacchus; conditions: GC from large antral follicles
Method: Mural GC from large antral follicles were cultured for 24h and thymidine incorporation was stimulated with 175 ng/ml GDF9. […] Bars/points represent means+/−SEM from 3 replicate experiments expressed as a fold change relative to control.
Follicles were manually excised and separated into 3 size classes: periantral (PA; 0.42-0.66 mm), small antral (SA; 0.66-1.5 mm) and large antral (LA; >1.5 mm). GCs from each follicle size were collected and pooled, then washed twice in bicarbonate-buffered tissue culture medium-199 (B-TCM) supplemented with 0.3 mg/ml of polyvinyl alcohol (PVA, Sigma). Depending on the individual experiments, mural GCs (1×10^5 cells/ml), hormones, inhibitors and media were added to wells of 96-well plates (Falcon) to give a final volume of 125 μl. Within each experiment, all treatments were carried out in at least duplicate wells and each experiment was replicated on at least 3 occasions. Cells were cultured in an atmosphere of 37° C., 96% humidity in 5% CO2 in air for 18 hours, followed by a further 6 hour pulse of 15.4 kBq tritiated thymidine (3H-thymidine, ICN) under the same conditions.
Seven adult female marmosets were primed with […] for 6 days, whole ovaries were removed on day 7, follicles manually excised, and GC were then collected from 3 size classes: periantral (PA; 0.42-0.66 mm), small antral (SA; 0.66-1.5 mm) and large antral (LA; >1.5 mm). Four different approaches were utilized to examine GDF9 function in GC. […] To examine the GDF9 signalling pathway, cultured GC from LA follicles were transfected with either a CAGA-luciferase or BRE-luciferase reporter construct and treated with various TGF-β superfamily growth factors or co-cultured with mouse oocytes. In order to determine the effects of GDF9 on marmoset GC proliferation, we employed a GC bioassay whereby after 24 h ^3H-thymidine incorporation is assessed as an indicator of DNA synthesis and cellular proliferation. […] In another experiment, GC were treated with an increasing dose of SB431542, an activin-like kinase (ALK) 4/5/7 inhibitor, in the presence of GDF9+/−IGF1.

[3] = system: cumulus-oocyte complexes; assay: Study IV: oocyte developmental competence after IVM, IVF and embryo culture; assay type: cell-based, Bovine
Method: Unless otherwise specified, all chemicals and reagents were purchased from Sigma (St Louis, Mo.). Bovine ovaries were collected from local abattoirs and transported to the laboratory in warm saline (30-35° C.). COCs were aspirated from antral follicles (3 to 5 mm diameter) using an 18-gauge needle and a 10-ml syringe containing ˜2 ml aspiration medium (Hepes-buffered. Tissue Cultured Medium-199; TCM-199. ICN Biochemicals, Irvine, Calif., USA) supplemented with 50 μg/ml kanamycin, 0.5 mM sodium pyruvate, 50 μg/ml heparin and 4 mg/ml fatty acid-free bovine serum albumin (FAF-BSA; ICPbio Ltd, Aukland, NZ). Intact COCs with compact cumulus vestments>˜5 cell layers and evenly pigmented cytoplasm were selected under a dissecting microscope and washed twice in Hepes-buffered TCM-199 and once in Hepes-buffered TCM-199 supplemented with 10% fetal calf serim (FCS) (Invitrogen, Carlsbad, Calif.). The basic medium for oocyte maturation was Bovine VitroMat (Cook Australia, Eight Mile Plains, Qld, Australia), a medium based on the ionic composition of bovine follicular fluid. […] Complexes were cultured in pre-equilibrated 300 ? l drops overlaid with mineral oil and incubated at 39° C. with 5% CO2 in humidified air for 24 hour. […]
Recombinant mouse GDF9 and recombinant ovine BMP15 were produced and partially purified in-house as previously described using transfected 293 human embryonic kidney cell lines (293H) originally donated by O. Ritvos (University of Helsinki). Control conditioned medium (hereafter designated ‘293H’) was produced from untransfected 293H cells and subjected to the same chromatography procedures as GDF9 and BMP15 conditioned media.
Consequently, SB-431542 potently antagonizes the ALK 4/5 ligands; TGF-β1, the activins and GDF9, without affecting BMP signalling (Inman et al., 2002; Gilchrist et al., 2006). […] Follistatin-288 was generously donated by S. Shimasaki (University of California San Diego, USA) and we have previously shown that this binding protein antagonizes the bioactivities of native OSFs and recombinant BMP15 in CCs.
In vitro production of embryos was undertaken using defined, serum-free media (Bovine Vitro series of media, Cook Australia). Frozen semen from a single bull of proven fertility was used in all experiments. Briefly, thawed semen was layered over a discontinuous (45%: 90%) Percoll gradient (Amersham Bioscience) and centrifuged (RT) for 20-25 mins at 700 g. The supernatant was removed and the sperm pellet was washed with 500 μl Bovine VitroWash (Cook Australia) and centrifuged for a further 5 minutes at 200 g. Spermatozoa were resuspended with IVF medium (Bovine VitroFert, Cook Australia), then added to the fertilization media drops (Bovine VitroFert, supplemented with 0.01 mM heparin, 0.2 mM penicillamine and 0.1 mM hypotaurine) at a final concentration of 1×106 spermatozoa/ml. COCs were inseminated at a density of 10 μl of IVF medium per COC for 24 h, at 39° C. in 6% CO2 in humidified air.
CCs were removed by gentle pipetting 23-24 h post insemination and five presumptive zygotes were transferred into 20 μl drops of pre-equilibrated Cook Bovine VitroCleave medium (Cook Australia) and cultured under mineral oil at 38.5° C. in 7% O2, 6% CO2, balance N2, for five days (day 1 to day 5).
On Day 5, embryos were transferred in groups of 5-6 to 20 μl drops of pre-equilibrated Bovine VitroBlast (Cook Australia) at 38.5° C. overlaid with mineral oil and cultured to Day 8. Embryos were assessed for quality at Day 8 according to the definitions presented in the Manual of the International Embryo Transfer Society (Stringfellow, 1998) and were performed independently and blinded by an experienced bovine embryologist.
Cell counts were performed using a modified version of the technique described by (Fouladi-Nashta et al., 2005). […]

NC(=O)c1ccc(-c2nc(-c3ccc4c(c3)OCO4)c(-c3ccccn3)[nH]2)cc1 [SB-431542, reference compound]
kinase selectivity [1]: specifically antagonizing the activities of activin receptor-like kinases (ALKs) 4, 5 and 7 | DNA synthesis stimulated by GDF9 in the presence of inhibitor ([2]; 175 ng/ml GDF9, 24 h): dose-dependently inhibited | stimulatory effects of GDF9 on DNA synthesis at 1 μM inhibitor ([2]; 1 μM): completely eliminate | blastocyst development of control COCs treated with antagonist ([3]; 4 μM SB-431542 or 10 μg/ml follistatin-288, compared to untreated COCs): significantly (P<0.05) decreased | effect on cleavage rate ([3]; Experiments 3 & 4, 4 μM SB-431542, 175 ng/ml GDF9, 10% v/v BMP15, 10% v/v 293H): no influence | increase of blastocyst yields by GDF9 or BMP15 on addition of the respective antagonist ([3]; SB-431542 against GDF9, follistatin against BMP15): ablated
